{"source": "patent US9718858B2", "about": "“Tunable control of protein degradation in synthetic and endogenous bacterial systems” (priority 2013, dated 2017)", "key": {"mf-Lon [1]": {"system": "mf-Lon", "test": "E. coli-based GFP-pdt degradation platform, Example 2 (genomically integrated codon-optimized mf-Lon, flow cytometry)", "format": "cell-based", "conditions": "for 50 ng/ml ATc (GFP fluorescence, untagged GFP set to 100) / 0 ng/ml ATc (GFP fluorescence, untagged GFP set to 100): GFP-pdt fusion in E. coli, flow cytometry, 6 hours; for 50 ng/ml ATc (GFP fluorescence, untagged GFP set to 100): mf-Lon induced with 50 ng/ml ATc; for 0 ng/ml ATc (GFP fluorescence, untagged GFP set to 100): no mf-Lon induction", "description": "Strains and Reagents. The E. coli K-12 derivative strain MG1655Pro (F-, λ-, Spr, lacI, tetR) published previously^2,42 was used as the wild-type strain in all cases except for the synthetic toggle experiments where the inventors used MG1655ΔlacIΔaraBAD, prepared as described in the herein. Unless otherwise noted, E. coli were grown in Luria broth (LB) at 30° C. with shaking and mf-Lon expression was induced with 50 ng/ml ATc. L. lactis strain […] was used for all L. lactis experiments and grown in M17 broth containing 0.5% glucose. Antibiotics carbenicillin (100 ug/ml), kanamycin (30 ug/ml) and erythromycin (10 ug/ml) were added to the media when appropriate. All plasmids and strain mutations were verified by sequencing, and plasmid maps will be deposited in GenBank.\nE. coli-Based Degradation Platform. The mf-lon gene was codon optimized for E. coli expression, placed under control of the PLtetO promoter, and integrated into the lacZ locus along with 5′ and 3′ transcriptional terminators to block unwanted mf-Lon expression from any proximal genomic promoters. The GFP variant GFPmut3b was used for all GFP expression, and GFP-pdt and mCherry-pdt variants were expressed from the constitutive PlacIq promoter on a high-copy plasmid containing the ColE1 origin and the kanamycin resistance cassette kanR.\nFlow Cytometry. Data for GFP and mCherry degradation dynamics were collected using an LSRFortessa cell analyzer equipped with a High Throughput Sampler (BD Biosciences), and data for the synthetic toggle switch were collected using a FACSArian flow cytometer (BD Biosciences). For each measurement, cells were fixed in 1% paraformaldehyde (PFA), held at 4° C. for up to 5 days, and then diluted 1:10 in PBS for analysis. At least 5,000 cells were collected for each measurement and FloJo (Treestar) was used for data analysis. […]"}, "mf-Lon [2]": {"system": "mf-Lon", "test": "GFP-pdt degradation platform in E. coli, Example 1 (plasmid-borne aTc-inducible mf-Lon)", "format": "cell-based", "conditions": "for Fold Degradation: 0 ng/ml aTc versus 50 ng/ml aTc; for 50 ng/ml aTc (GFP fluorescence, untagged GFP set to 100) / 0 ng/ml aTc (GFP fluorescence, untagged GFP set to 100): GFP-pdt fusion in E. coli, 10 h; for 50 ng/ml aTc (GFP fluorescence, untagged GFP set to 100): mf-Lon induced with 50 ng/ml aTc; for 0 ng/ml aTc (GFP fluorescence, untagged GFP set to 100): no mf-Lon induction", "description": "Strains, Plasmids and Reagents. The E. coli K-12 derivative strain MG1655Pro (F-, λ-, Sp^r, lacI, tetR) published previously^1,46 was used as the wild-type strain in all cases except for the synthetic toggle experiments where MG1655ΔlacIΔaraBAD was prepared and used as described herein. Unless otherwise noted, bacteria were grown in Luria broth (LB) at 30° with shaking and mf-Lon expression was induced with 50 ng/ml aTc. Antibiotics carbenicillin (100 ug/ml) and kanamycin (30 ug/ml) were added to the media when appropriate. All plasmids and strain mutations were verified by sequencing, and plasmid maps will be deposited in GenBank.\nGFP Degradation Platform. The GFP variant GFPmut3b^47 was used for all GFP expression. GFP-pdt variants were expressed from the constitutive PlacIq promoter^48 on a high-copy plasmid containing the ColE1 origin and a kanamycin-resistance cassette. The PLtetO promoter was used to express mf-Lon on a medium-copy plasmid containing the P15A origin and ampicillin-resistance cassette.\nFlow Cytometry. GFP expression was measured using a […] (BD BIOSCIENCES) flow cytometer with the following voltage settings: FCS, 340; SCS, 270; FITC (for GFP), 520; mCherry, 615. At least 10,000 cells were collected for each measurement and FloJo was used for data analysis.\nPlate Fluorimetry and Optical Density. Fluorescence and optical density measurements were made with a SPECTRAMAX M5 microplate reader (MOLECULAR DEVICES) using excitation and emission wavelengths of 488 nm and 520 nm, respectively, with an emission filter cutoff at 515 nm Optical density was measured at 600 nm (0D600). All measurements were made in 200 μl in 96-well clear bottom plates.\nPDT Mutagenesis Screens. Polymerase chain reaction (PCR) primers containing randomized nucleotides were used to mutagenize the indicated pdt codons. Plasmids containing the mutagenized tags fused to gfp were co-transformed with the mf-Lon expression plasmid into MG1655Pro. Transformants were picked into 96-well plates, grown to mid-log phase, diluted 1:20 into media with and without 50 ng/ml aTc and measured by plate reader after 10 h growth."}, "[3]": {"system": "synthetic toggle switch (LacI/TetR)", "test": "Protease-driven control of a synthetic toggle switch, Example 2", "format": "cell-based, E. coli", "description": "Flow Cytometry. Data for GFP and mCherry degradation dynamics were collected using an LSRFortessa cell analyzer equipped with a High Throughput Sampler (BD Biosciences), and data for the synthetic toggle switch were collected using a FACSArian flow cytometer (BD Biosciences). For each measurement, cells were fixed in 1% paraformaldehyde (PFA), held at 4° C. for up to 5 days, and then diluted 1:10 in PBS for analysis. At least 5,000 cells were collected for each measurement and FloJo (Treestar) was used for data analysis.\nSynthetic Toggle Switch. The plasmid pKDL071R8, based on pKDL07143, was altered to contain a weakened tetR ribosome binding site (RBS) to enhance toggle bistability in the minimal media conditions used. This plasmid served as the parental strain for all LacI-pdt toggle switch experiments. Pdt variants were fused to lad by overlapping PCR and cloned into pKDL071R8 using SacII and BsrGI. The arabinose inducible PBAD promoter was used to express mf-Lon from a second plasmid. Cells containing the toggle switch and mf-Lon expression plasmids were grown in 200 μl in 96-well round bottom plates at 37° C. in M9 minimal media containing 0.2% glycerol and 0.05% casamino acids, and care was taken to maintain exponential growth throughout the experiment. […]"}}, "data": [{"substance": "pdt#1 (AANKNEENTNEVPTFMLNAGQANRLQL)", "values": [{"measurement": "50 ng/ml ATc (GFP fluorescence, untagged GFP set to 100)", "setting": "mf-Lon [1]", "result": 1, "unit": "%"}, {"measurement": "0 ng/ml ATc (GFP fluorescence, untagged GFP set to 100)", "setting": "mf-Lon [1]", "result": 40, "unit": "%"}, {"measurement": "Fold Degradation", "setting": "mf-Lon [2]", "result": 24.6}, {"measurement": "50 ng/ml aTc (GFP fluorescence, untagged GFP set to 100)", "setting": "mf-Lon [2]", "result": 0.9, "unit": "%"}, {"measurement": "0 ng/ml aTc (GFP fluorescence, untagged GFP set to 100)", "setting": "mf-Lon [2]", "result": 21.8, "unit": "%"}]}, {"substance": "pdt#3E: Example 2: aa13-15 PDG, aa24-27 RRRV, SEQ ID NO 115 (AANKNEENTNEVPDGMLNAGQANRRRV)", "values": [{"measurement": "50 ng/ml ATc (GFP fluorescence, untagged GFP set to 100)", "setting": "mf-Lon [1]", "result": 87, "unit": "%"}, {"measurement": "0 ng/ml ATc (GFP fluorescence, untagged GFP set to 100)", "setting": "mf-Lon [1]", "result": 112, "unit": "%"}]}, {"substance": "pdt#3A: Example 2: aa13-15 FKL, aa24-27 RRRV, SEQ ID NO 114 (AANKNEENTNEVFKLMLNAGQANRRRV)", "values": [{"measurement": "50 ng/ml ATc (GFP fluorescence, untagged GFP set to 100)", "setting": "mf-Lon [1]", "result": 27, "unit": "%"}, {"measurement": "0 ng/ml ATc (GFP fluorescence, untagged GFP set to 100)", "setting": "mf-Lon [1]", "result": 115, "unit": "%"}, {"measurement": "toggle switching relative to LacI-pdt#3", "setting": "[3]", "result": "provided temporal control over the circuit switch rate"}]}, {"substance": "pdt#3B: Example 2: aa13-15 RAI, aa24-27 RRRV, SEQ ID NO 18 (AANKNEENTNEVRAIMLNAGQANRRRV)", "values": [{"measurement": "50 ng/ml ATc (GFP fluorescence, untagged GFP set to 100)", "setting": "mf-Lon [1]", "result": 38, "unit": "%"}, {"measurement": "0 ng/ml ATc (GFP fluorescence, untagged GFP set to 100)", "setting": "mf-Lon [1]", "result": 100, "unit": "%"}, {"measurement": "toggle switching relative to LacI-pdt#3", "setting": "[3]", "result": "provided temporal control over the circuit switch rate"}]}, {"substance": "AANKNEENTNEVPTFMLNAGQANYAFA [pdt, reference compound]", "values": [{"measurement": "GFP-pdt remaining, % of its initial levels after mf-Lon expression", "setting": "mf-Lon [1]", "result": 3, "unit": "%"}, {"measurement": "50 ng/ml ATc (GFP fluorescence, untagged GFP set to 100)", "setting": "mf-Lon [1]", "result": 1, "unit": "%"}, {"measurement": "0 ng/ml ATc (GFP fluorescence, untagged GFP set to 100)", "setting": "mf-Lon [1]", "result": 50, "unit": "%"}, {"measurement": "Fold Degradation", "setting": "mf-Lon [2]", "result": 20.7}, {"measurement": "50 ng/ml aTc (GFP fluorescence, untagged GFP set to 100)", "setting": "mf-Lon [2]", "result": 0.6, "unit": "%"}, {"measurement": "0 ng/ml aTc (GFP fluorescence, untagged GFP set to 100)", "setting": "mf-Lon [2]", "result": 12.5, "unit": "%"}, {"measurement": "drop in GFP following mf-Lon induction", "setting": "mf-Lon [2]; from initial (steady-state) levels", "result": 21, "unit": "fold"}, {"measurement": "GFP-pdt levels compared with untagged GFP", "setting": "mf-Lon [2]; late-log and stationary phase, constitutive expression, no mf-Lon", "result": "markedly lower"}]}, {"substance": "pdt#3C: Example 2: aa13-15 AQP, aa24-27 RRRV, SEQ ID NO 22 (AANKNEENTNEVAQPMLNAGQANRRRV)", "values": [{"measurement": "50 ng/ml ATc (GFP fluorescence, untagged GFP set to 100)", "setting": "mf-Lon [1]", "result": 48, "unit": "%"}, {"measurement": "0 ng/ml ATc (GFP fluorescence, untagged GFP set to 100)", "setting": "mf-Lon [1]", "result": 107, "unit": "%"}]}, {"substance": "pdt#3D: Example 2: aa13-15 APN, aa24-27 RRRV, SEQ ID NO 19 (AANKNEENTNEVAPNMLNAGQANRRRV)", "values": [{"measurement": "50 ng/ml ATc (GFP fluorescence, untagged GFP set to 100)", "setting": "mf-Lon [1]", "result": 66, "unit": "%"}, {"measurement": "0 ng/ml ATc (GFP fluorescence, untagged GFP set to 100)", "setting": "mf-Lon [1]", "result": 104, "unit": "%"}]}]}
